In US20090253709A1 (NATIONAL DEFENSE MEDICAL CENTER, priority 2008, published 2009):
Where two headings read alike, the source gives them in different places.

Experiments:
MTT assay in H1299 cells = format: cell-based; conditions: human, H1299 cells (H1299/PhTERT-driven SEAP reporter system), H1299, read-out: MTT (Inhibition μM ± SD); for viability at 24 h, 1 µM: compound concentration 1 μM; for viability at 24 h, 10 µM: compound concentration 10 μM; for viability at 24 h, 100 µM: compound concentration 100 μM
Procedure: H1299 is a non-small cell lung cancer cell line with telomerase activity. The cell extract of H1299 cell lines can be used for selecting the telomerase activity inhibitors in vitro and the telomerase activity-inhibited substances in vivo. H1299 cell line was incubated with RPMI 1640 medium supplemented with 10% of fetal bovine serum (FBS). A total of 2×10^3 […] cells were seeded in the 96-well cell culture plate, and incubated with DMEM (GIBCO®)/glucose mixture and Medium 199 (GIBCO®)/10% FBS/1 mM sodium pyruvate (GIBCO®)/4 mM L-glutamine (GIBCO®) mixture at a ratio of 4:1 at 37° C. for 24 hours. […] After 48 hours of drug treatment, the cultured medium were collected for performing the analysis of SEAP activity. The cells were washed with 1×PBS once immediately, and the MTT assay was performed to compare the compounds with the relative toxicity or the influence to the proliferation and activity. Mitochondria is the place for cellular respiration, and there are many reductive reactions catalyzed by dehydrogenases. MTT is a water-soluble yellow compound, and the […] will be formed after reduction. This crystal can be dissolved in the organic solvent, and has high absorbance at the wavelength of 570 nm. The higher cellular activity or more cell numbers, the more generated crystal violets. Therefore, the cellular activity and cell number can be obtained by the MTT assay. MTT solution was prepared by dissolving MTT powder in PBS solution to achieve 5 mg/ml, filtrated and stored at 4° C. Lysis buffer contained 20% (w/v) of SDS in 50% of N,N-dimethylformamide (DMF, Riedel-deHaën). After the cells were incubated in the 96-well culture plate, the original medium was discarded, 100 μl of the fresh serum-free medium per well and 25 μl of MTT solution per well were added in respectively, and the cells were further incubated in the CO2 incubator at 37° C. for 4 hours. Then, 100 μl of lysis buffer per well was added in and incubated overnight in the CO2 incubator at 37° C. The absorbance at 570 nm was determined by the ELISA reader. The selection of telomerase inhibitors of the anthraquinone compounds provided in the present invention was performed by the […]-driven SEAP system. SEAP is the communication gene in this drug selection model. The SEAP inhibition was shown as follows. […] Subsequently, the linear slope of absorbance to the measuring time was calculated, and the variance of absorbance at 405 nm per minute was represented and compared with the SEAP-producing result of drug-untreated H1299 cells. In addition, the influence of the cell-treated drug solution to the cellular proliferation and the drug toxicity to the cells were considered, and the cellular growth was evaluated by the MTT assay. The drug-treated cells were analyzed by the SEAP assay and the data analysis of MTT assay at the same time. Both results were compared so as to delete the influence of cell number or the activity to SEAP, and the dose-dependent phenomenon could be anticipated in the range of drug concentration designed by the laboratory. […] Since the chemically-synthetic drugs have colors thereon, the SEAP value of drug-treatment without cells was also determined to be the background value which was deducted while treating with the drugs. The candidate drug for inhibiting telomerase on the hTERT gene expression level was evaluated and anticipated.

hTERT expression = experiment: SEAP assay in hTERT-BJ1-PTERT(3.4)-SEAP cells; format: cell-based; conditions: Homo sapiens, read-out: SEAP (Inhibition μM ± SD)
Procedure: A total of 2×10^3 hTERT-BJ1-PTERT(3.4)-SEAP cells were seeded in the 96-well cell culture plate, and incubated with DMEM (GIBCO®)/glucose mixture and Medium 199 (GIBCO®)/10% FBS/1 mM sodium pyruvate (GIBCO®)/4 mM L-glutamine (GIBCO®) mixture at a ratio of 4:1 at 37° C. for 24 hours. When the cells were attached in the bottom of the well, the seriously-diluted compounds with different concentrations ([…]) were treated with the cells for 48 hours, and the PTERT(3.4)-SEAP cells without drug treatment were being the control. After 48 hours of drug treatment, the cultured medium were collected for performing the analysis of SEAP activity. The cells were washed with 1×PBS once immediately, and the MTT assay was performed to compare the compounds with the relative toxicity or the influence to the proliferation and activity.
The cellular medium after the cellular incubation was transferred into the eppondorf tube, and the activity of endogeneous alkaline phosphatase was inactivated at 65° C. for 10 minutes. After centrification, the mixture was obtained by mixing 50 μl of the supernatant with the equal volume of the SEAP buffer. The mixture and the substrate (120 mM of p-nitrophenylphosphate) were preheated at 37° C. for 10 minutes respectively, and the mixture and the substrate were mixed at a ratio of 1:10 and reacted at 37° C. The absorbance of visible light at 405 nm was determined at the appropriate time intervals, and the enzymatic activity of SEAP was represented by the speed of the increasing absorbance at 405 nm.

[1] = BJ1, compound concentration 1 μM
[2] = BJ1, compound concentration 10 μM
[3] = BJ1, compound concentration 100 μM

Row | SMILES | viability at 24 h, 1 µM (MTT assay in H1299 cells) [%] | viability at 24 h, 10 µM (MTT assay in H1299 cells) [%] | viability at 24 h, 100 µM (MTT assay in H1299 cells) [%] | activity at 1 µM (hTERT expression) [%] | activity at 10 µM (hTERT expression) [%] | activity at 100 µM (hTERT expression) [%] | activity at 1 µM (hTERT expression; [1]) [%] | activity at 10 µM (hTERT expression; [2]) [%] | activity at 100 µM (hTERT expression; [3]) [%]
1 | CN(C)CCC(=O)Nc1ccc2c(c1)C(=O)c1cc(NC(=O)CCN(C)C)ccc1C2=O [Compound 20, 2,7-Bis[3-(dimethylamino)propionamido]anthraquinone] | 1 ± 104 | 53 ± 13 | 1 ± 1 | 86 ± 2 | 61 ± 2 | 38 | – | – | –
2 | O=C(Cc1ccccc1)Nc1ccc2c(c1)C(=O)c1cc(NC(=O)Cc3ccccc3)ccc1C2=O [Compound 30, 2,7-Bis(phenylacetamido)anthraquinone] | 106 ± 12 | 96 ± 17 | 75 ± 22 | – | – | – | 85 ± 8 | 79 ± 6 | 40 ± 15
3 | CCCCNCC(=O)Nc1ccc2c(c1)C(=O)c1cc(NC(=O)CNCCCC)ccc1C2=O [Compound 5, 2,7-Bis[2-(butylamino)acetamido]anthraquinone] | 91 ± 16 | 17 ± 9 | 15 ± 11 | – | – | – | 27 ± 18 | 24 ± 24 | 80 ± 14
4 | O=C(CCl)Nc1ccc2c(c1)C(=O)c1cc(NC(=O)CCl)ccc1C2=O [Compound 3, 2,7-bis(chloroacetamido)anthraquinone] | 58 ± 44 | 5 ± 3 | 1 | – | 69 ± 34 | 135 ± 21 | – | – | –
5 | CC(C)CNCC(=O)Nc1ccc2c(c1)C(=O)c1cc(NC(=O)CNCC(C)C)ccc1C2=O [Compound 14, 2,7-Bis[2-(isobutylamino)acetamido]anthraquinone] | 108 ± 8 | 39 ± 10 | 11 ± 5 | – | – | – | 83 ± 5 | 44 ± 2 | 40 ± 3
6 | CC(=O)Nc1ccc2c(c1)C(=O)c1cc(NC(C)=O)ccc1C2=O [Compound 26, 2,7-Bis(acetamido)anthraquinone] | 117 ± 15 | 83 ± 13 | 55 ± 11 | 123 ± 5 | 117 ± 3 | 117 ± 5 | – | – | –
7 | O=C(CN1CCCCC1)Nc1ccc2c(c1)C(=O)c1cc(NC(=O)CN3CCCCC3)ccc1C2=O [Compound 7, 2,7-Bis[2-(piperidino)acetamido]anthraquinone] | 50 ± 16 | 37 ± 15 | 35 ± 11 | – | – | – | 118 ± 16 | 121 ± 3 | 103 ± 5
8 | CCN(CC)CCC(=O)Nc1ccc2c(c1)C(=O)c1cc(NC(=O)CCN(CC)CC)ccc1C2=O [Compound 16, 2,7-Bis[3-(diethylamino)propionamido]anthraquinone] | 106 ± 15 | 41 ± 20 | 1 ± 1 | – | – | – | 84 ± 5 | 49 ± 3 | 37 ± 5
9 | CCCCNCCC(=O)Nc1ccc2c(c1)C(=O)c1cc(NC(=O)CCNCCCC)ccc1C2=O [Compound 17, 2,7-Bis[3-(butylamino)propionamido]anthraquinone] | 82 ± 12 | 52 ± 4 | 14 ± 10 | – | – | – | 88 ± 34 | 95 ± 46 | 111 ± 25
10 | O=C(CCN1CCCC1)Nc1ccc2c(c1)C(=O)c1cc(NC(=O)CCN3CCCC3)ccc1C2=O [Compound 18, 2,7-Bis[3-(pyrrolidino)propionamido]anthraquinone] | 87 ± 15 | 54 ± 7 | 12 ± 10 | – | – | – | – | 67 ± 16 | 109 ± 18
11 | O=C(CCN1CCCCC1)Nc1ccc2c(c1)C(=O)c1cc(NC(=O)CCN3CCCCC3)ccc1C2=O [Compound 19, 2,7-Bis[3-(piperidino)propionamido]anthraquinone] | 87 ± 15 | 44 ± 7 | 18 ± 9 | – | – | – | 186 ± 47 | 226 ± 51 | 234 ± 20
12 | CN1CCN(CC(=O)Nc2ccc3c(c2)C(=O)c2cc(NC(=O)CN4CCN(C)CC4)ccc2C3=O)CC1 [Compound 11, 2,7-Bis[2-(N-methylpiperazino)acetamido]anthraquinone] | 90 ± 14 | 71 ± 4 | 37 ± 6 | – | – | – | 61 ± 21 | 68 ± 21 | 97 ± 30
13 | CCNCC(=O)Nc1ccc2c(c1)C(=O)c1cc(NC(=O)CNCC)ccc1C2=O [Compound 10, 2,7-Bis[2-(ethylamino)acetamido]anthraquinone] | 52 ± 11 | 24 ± 5 | 3 ± 4 | 90 ± 5 | 41 ± 4 | 17 ± 21 | – | – | –
